From article PMC6222871, “Suppression of Hepatitis C Virus Genome Replication and Particle Production by a Novel Diacylglycerol Acyltransferases Inhibitor” (Molecules : A Journal of Synthetic Chemistry and Natural …, 2018)

Legend:
Huh7.5 cells [1] = test: visualization of intracellular LD by BODIPY in Huh7.5 cells; format: cell-based; settings: 20 μM, 72 h
Method: Huh7.5 cells were incubated in a 24-well plate on top of coverslip in the presence of either DMSO, 8 μM of 10j, or 20 μM of A922500 for 72 h. Then, Huh7.5 cells were fixed by using 4% paraformaldehyde for 15 min and stained with 0.001% BODIPY 493/503 D3922 (Invitrogen, Carlsbad, CA, USA) for 10 min. The coverslips were mounted onto slides using Prolong Gold anti-fade reagent with DAPI (Invitrogen, Carlsbad, CA, USA) Fluorescence were examined and captured by Nikon confocal laser scanning microscopic system. LD content was quantified using the ImageJ program.

[2] = MTT-based cell viability assay (EZ-CYTOX); settings: human
Method: (§1) To order to study impacts of DGAT inhibitors on HCV genome replication independently of the particle production, we decided to examine effects of these twelve DGAT inhibitors on the levels of viral RNA genome and cell viability in parallel. […] Then, we treated them with an increasing concentration of each DGAT inhibitor. Then, luciferase and MTT-based cell viability assays were performed to determine EC50 and CC50 (cytotoxic concentration required to kill 50% of treated cells) values, respectively.
(§2) Cell viability was measured with EZ-CYTOX (10% tetrazolium salt; Dogen, Gyeonggi-do, Korea) as described previously. Anti-HCV replication analysis using a luciferase assay was conducted as previously described.

[3] = test system: HCV genotype 2a (Huh7.5-J6/JFH1); test: HCV particle production: infectivity of supernatant on naive Huh7.5 cells by real-time RT-PCR; format: cell-based, hepatitis C virus; settings: Hepatitis C virus, read-out: EC50 on HCV particle production
Method: A922500, a commercially available DGAT-1-specific inhibitor was used as a positive control [10]. […] Therefore, we decided to examine effects of these twelve DGAT inhibitors on HCV particle production as well as RNA genome replication in parallel. For this purpose, we transfected Huh7.5 cells with in vitro-transcribed genotype 2a HCV RNAs (Huh7.5-J6/JFH1) [16] and treated them with each DGAT inhibitor for 6 and 72 h at 10 μM. HCV genome replication as well as host GAPDH RNA levels was quantitated by a real-time RT-PCR analysis. For assessment of HCV particle production, we harvested and filtered the supernatant from Huh7.5-J6/JFH1 cells treated with DGAT inhibitors and incubated the supernatant with naïve huh7.5 cells for 72 h. Then, infectivity was measured by a real-time RT-PCR analysis.
Huh7.5-J6/JFH-1 cells were seeded into 6-well plates at a density of 3 × 10^5 cells per well with DMEM containing 10% FBS. […] Total RNAs were extracted from treated cells and virus-containing media were harvested at each time point. Naïve Huh7.5 cells were infected with these virus-containing media after concentration with centricons.

[4] = test system: HCV genotype 2a (Huh7.5-J6/JFH1); test: microbe, parasite or virus in culture; settings: Hepatitis C virus, read-out: EC50 on HCV genome replication
Text: We previously synthesized and characterized twelve DGAT inhibitors with a different DGAT specificity. […] A922500, a commercially available DGAT-1-specific inhibitor was used as a positive control. In spite of a wealth of knowledge on an essential role of DGAT-1 in the HCV particle assembly and production, less attention has been paid to potential functions of DGATs in other steps of the viral life cycle. Therefore, we decided to examine effects of these twelve DGAT inhibitors on HCV particle production as well as RNA genome replication in parallel. For this purpose, we transfected Huh7.5 cells with in vitro-transcribed genotype 2a HCV RNAs (Huh7.5-J6/JFH1) and treated them with each DGAT inhibitor for 6 and 72 h at 10 μM. HCV genome replication as well as host GAPDH RNA levels was quantitated by a real-time RT-PCR analysis. For assessment of HCV particle production, we harvested and filtered the supernatant from Huh7.5-J6/JFH1 cells treated with DGAT inhibitors and incubated the supernatant with naïve huh7.5 cells for 72 h. Then, infectivity was measured by a real-time RT-PCR analysis.
Quantitative real-time RT-PCR analysis to measure levels of HCV RNA and GAPDH was conducted as previously described. The cDNA synthesis and reverse transcription of miR-122 were performed by using Taqman quantitative RT-PCR (qRT-PCR) analysis. Taqmanq RT-PCR components including TaqMan miR122 probe, endogenous control U6 probe, TaqMan® MicroRNA reverse transcription Kit and TaqMan® universal master mix II were purchased from Thermo Fisher Scientific (Waltham, MA, USA)
Huh7.5-J6/JFH-1 cells were seeded into 6-well plates at a density of 3 × 10^5 cells per well with DMEM containing 10% FBS. After 24 h, they are incubated with either DMSO, increasing concentrations of 10j for 3, 6, 12, 24, 48, and 72 h, or increasing concentrations of A922500 for 6, 12, 24, 48, and 72 h. Total RNAs were extracted from treated cells and virus-containing media were harvested at each time point. Naïve Huh7.5 cells were infected with these virus-containing media after concentration with centricons. Total RNAs were extracted from Huh7.5 cells infected with virus-containing media. qRT-PCR analysis was performed to measure effect of 10j on HCV replication and virus particle production.

Huh7.5 cells [5] = test: TG quantification assay in Huh7.5 cells; format: cell-based; settings: 20 μM
Method: Cells were washed with cold PBS, suspended, and homogenized in 1 mL of 5% NP-40/ddH2O solution. Then, homogenized cells were slowly heated to 90 °C for 5 min or until the NP-40 becomes cloudy, then cooled down to room temperature. Previous step was repeated to solubilize all TG. Cells were centrifuged for 2 min at top speed using a microcentrifuge to remove any insoluble material. Samples were diluted 10-fold with ddH2O before proceeding with the assay. […] Samples were added with 50 μL of reaction mix into each well and incubated at room temperature for 60 min while protected from light. Fluorescence was measured by using a fluorometric reader with Ex/Em = 535/590 nm. The amount of TG from standard sample was calculated using the following equation: Ts=Corrected absorbance−(y−intercept)/slope The amount of intracellular TG was calculated using the following equation: Concentration=Ts/Sv*D where the Ts is the amount of TG from standard curve and Sv is the volume of sample added to sample wells and D is the sample dilution factor.

JFH1-NS5A-GFP cells = test: NS5A-GFP and Oil Red O imaging in JFH1-NS5A-GFP cells; format: cell-based, hepatitis C virus
Method: Based on previous results, we noticed that EC50 values required for inhibition of the HCV genome replication by 10j were around 1–2 μM ranges (Figure 2 and Table 3). However, IC50 value required for inhibition of the enzymatic DGAT activities in vitro by 10j was reported to be higher than 5 μM (Table 2 and Figure 6E). Based on these observations, we hypothesized that inhibition of DGATs by 10j may not play a direct role in suppression of the viral genome replication. To test this hypothesis, we decided to study effects of 10j on DGAT and the viral genome replication in a simultaneous manner. […] Then, the viral NS3 protein and LDs were visualized by using an anti-NS3 antibody and BODIPY, respectively. […] Significant reduction of LD was only seen after treatment of 10j higher than 5 μM. In order to confirm this observation, we decided to utilize another HCV-positive cell—JFH1-NS5A-GFP cells—which were infected with infectious HCV genotype 2a particles with a visually tractable NS5A due to the presence of in-frame-fused GFP protein with NS5A. TGs of these cells were stained with ORO for visualization in parallel. […]
Immunofluorescence analysis of Huh7.5-J6/JFH1 or Huh7.5-JFH1-5A-GFP cells in the presence of 10j was conducted as previously described. Fluorescence were examined and captured by Nikon confocal laser scanning microscopic system. LD content was quantified using the ImageJ program.

[6] = test system: luciferase-linked genotype 2a HCV RNAs; test: microbe, parasite or virus in culture; format: cell-based, hepatitis C virus; settings: Hepatitis C virus, Huh7.5, luciferase-linked genotype 2a HCV RNA in Huh7.5 cells; read-out: EC50 (HCV replication)
Method: as §1, §2

recombinant DGAT-1 = test system: recombinant DGAT-1; design: method as in PMID 23242135; settings: recombinant DGAT-1, [14C] oleoyl-CoA as acyl-donor; cited from earlier work
HCV = test system: HCV; design: method as in PMID 27788579; settings: read-out: EC50 in vitro; cited from earlier work

| Structure (SMILES) | increase in the level of LDs (BODIPY) (Huh7.5 cells [1]) | CC50 [2] | EC50 ([3]; Huh7.5, 6 h) | EC50 ([3]; Huh7.5, 12 h) | EC50 ([3]; Huh7.5, 24 h) | EC50 ([3]; Huh7.5, 48 h) | EC50 ([3]; Huh7.5, 72 h) | EC50 ([4]; 6 h) | EC50 ([4]; 12 h) | EC50 ([4]; 24 h) | EC50 ([4]; 48 h) | EC50 ([4]; 72 h) | suppression of endogenous level of TG (Huh7.5 cells [5]) | abundance of GFP-tagged NS5A proteins or ORO-stained LDs (JFH1-NS5A-GFP cells) | EC50 [6] | IC50 (recombinant DGAT-1) | EC50 (HCV) |
| --- | --- | --- | --- | --- | --- | --- | --- | --- | --- | --- | --- | --- | --- | --- | --- | --- | --- |
| O=C(Nc1ccccc1)Nc1ccc(-c2ccc(C(=O)[C@@H]3CCC[C@H]3C(=O)O)cc2)cc1 [A922500, reference compound] | 45% | 71.9 µM | 34.3 µM | 76.6 µM | 68.6 µM | 42.2 µM | 22 µM | > 100 µM | > 100 µM | > 100 µM | > 100 µM | > 100 µM | 25% | failed to induce any significant changes | 50.8 µM | 0.007 µM |  |
| O=C(O)C[C@H]1CC[C@H](c2ccc(-c3ccc(Nc4ccc(C(F)(F)F)nc4)cn3)cc2)CC1 [pradigastat] |  |  |  |  |  |  |  |  |  |  |  |  |  |  |  |  | 30 µM |
